Results as given in the supplement of paper PMC4862054.

Columns and labels:
Test in all cases: normalised response (% of control), CellTiter-Glo; higher = more viable cells (100 = DMSO, 0 = benzethonium chloride kill control)
Settings in all cases: incubation time: 72 h
[1] = tested on: BT-474
Summary of the method: (§1)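 Breast cancer cell lines (20 µl suspension) were seeded into 384-well plates holding compound at 5 concentrations in 10-fold steps over a compound-specific 10,000-fold range, then incubated 72 h. CellTox Green fluorescence (485/520 nm) was read first, then CellTiter-Glo luminescence after 10 min at room temperature. Each plate was normalised to 0.1 % DMSO (100) and a positive kill control (0). Each value is the normalised signal at a single concentration of the series.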

[2] = tested on: BT-549
Summary of the method: as §1

[3] = tested on: CAL-120
Summary of the method: as §1

[4] = tested on: CAL-148
Summary of the method: as §1

[5] = tested on: CAL-51
Summary of the method: as §1

[6] = tested on: CAL-85-1
Summary of the method: as §1

[7] = tested on: DU-4475
Summary of the method: as §1

[8] = tested on: HCC1143
Summary of the method: as §1

[9] = tested on: HCC1599
Summary of the method: as §1

[10] = tested on: HCC1937
Summary of the method: as §1

[11] = tested on: HDQ-P1
Summary of the method: as §1

[12] = tested on: Hs578T
Summary of the method: as §1

[13] = tested on: MCF-10A
Summary of the method: as §1

[14] = tested on: MDA-MB-231
Summary of the method: as §1

[15] = tested on: MDA-MB-436
Summary of the method: as §1

[16] = tested on: MDA-MB-453
Summary of the method: as §1

[17] = tested on: MDA-MB-468
Summary of the method: as §1

[18] = tested on: MFM-223
Summary of the method: as §1

[19] = tested on: SK-BR-3
Summary of the method: as §1

SMILES | normalised response [1] [%] | normalised response [2] [%] | normalised response [3] [%] | normalised response [4] [%] | normalised response [5] [%] | normalised response [6] [%] | normalised response [7] [%] | normalised response [8] [%] | normalised response [9] [%] | normalised response [10] [%] | normalised response [11] [%] | normalised response [12] [%] | normalised response [13] [%] | normalised response [14] [%] | normalised response [15] [%] | normalised response [16] [%] | normalised response [17] [%] | normalised response [18] [%] | normalised response [19] [%]
Nc1nc(F)nc2c1ncn2[C@@H]1O[C@H](CO)[C@@H](O)[C@@H]1O [Fludarabine] (1 nM) | 111 | 101 | 98.4 | 97.2 | 93.1 | 101 | 99.8 | 110 | 102 | 99.3 | 103 | 110 | 113 | 99.9 | 120 | 112 | 103 | 109 | 111
CC[C@H](Nc1ncnc2[nH]cnc12)c1nc2cccc(F)c2c(=O)n1-c1ccccc1 [GS-1101] (1 nM) | 92 | 102 | 90.1 | 84.8 | 101 | 95.1 | 100 | 89.9 | 96.3 | 91.6 | 88.3 | 96.8 | 79.2 | 98.5 | 92.5 | 88.3 | 93.4 | 85.4 | 88
CC[C@H](Nc1ncnc2[nH]cnc12)c1nc2cccc(F)c2c(=O)n1-c1ccccc1 [GS-1101] (10 nM) | 93.7 | 92.7 | 93.2 | 87 | 122 | 95.3 | 100 | 93.2 | 112 | 92.3 | 94.2 | 97.4 | 89.7 | 93.2 | 88.3 | 89.1 | 99.8 | 87.8 | 65
C=CC(=O)N1CCC[C@@H](n2nc(-c3ccc(Oc4ccccc4)cc3)c3c(N)ncnc32)C1 [Ibrutinib] (0.1 nM) | 101 | 102 | 97.1 | 101 | 99.3 | 100 | 102 | 96.3 | 104 | 97.3 | 93.6 | 104 | 109 | 102 | 96.8 | 110 | 103 | 106 | 109
C=CC(=O)N1CCC[C@@H](n2nc(-c3ccc(Oc4ccccc4)cc3)c3c(N)ncnc32)C1 [Ibrutinib] (1 nM) | 103 | 97.8 | 97.7 | 114 | 102 | 98.3 | 106 | 106 | 102 | 95.3 | 98.2 | 99.3 | 111 | 105 | 98.2 | 107 | 105 | 108 | 98.1
